{
  "source": "patent US9227852B2",
  "about": "“Apparatus, systems, and methods for water treatment” (McWong Environmental Technology, priority 2008, dated 2016)",
  "key": {"MS2 coliphage": {"system": "MS2 coliphage", "type": "cell-based", "settings": "for effect of peroxide addition on virus / MS2 coliphage disinfection: at the ozone and peroxide doses tested, media filtered or microfiltered water"}, "[1]": {"assay": "Comparison of treatment methods for removing MIB from water (Table 4, FIG. 6)"}, "[2]": {"assay": "Comparison of treatment methods for removing geosmin from water (Table 4, FIG. 6)"}, "[3]": {"assay": "Destruction of trace organic compounds in waste water: bisphenol-A", "design": "dose or concentration left out as unconfirmed", "settings": "FIG. 20", "protocol": "(§1) While ozone and ozone/peroxide methods are know to reduce the levels of various organic compounds commonly found in waste water, the efficacy of the present apparatus, systems, and methods for removing nonylphenol (NP), bisphenol-A (BPA), and triclosan (TCS) from waste water was also tested."}, "[4]": {"assay": "Bench-scale ozone / AOP treatment of tertiary filtered effluent: Triclosan", "settings": "Ozone Only Mode, ozone dose of 5 mg/l, FIG. 30"}, "poliovirus": {"system": "poliovirus", "type": "cell-based"}, "[5]": {"assay": "Bench-scale ozone / AOP treatment of tertiary filtered effluent: Sulfamethoxazole", "settings": "Ozone Only Mode, ozone dose of 5 mg/l, FIG. 33"}, "[6]": {"assay": "Bench-scale ozone / AOP treatment of tertiary filtered effluent: Fluoxetine", "settings": "Ozone Only Mode, ozone dose of 5 mg/l, FIG. 32"}, "[7]": {"assay": "Destruction of trace organic compounds in waste water: triclosan", "design": "dose or concentration left out as unconfirmed", "settings": "FIG. 20", "protocol": "as §1"}, "E. Coli": {"system": "E. Coli", "assay": "Bench-scale ozone / AOP disinfection of tertiary filtered effluent: E. Coli", "type": "cell-based", "settings": "Ozone Only Mode, ozone dose of less than or equal to 5 mg/l"}, "total coliform": {"system": "total coliform", "type": "cell-based, coliforms"}, "[8]": {"assay": "Bench-scale ozone / AOP treatment of tertiary filtered effluent: Estradiol Equivalents (B-screen bioassay)", "settings": "Ozone Only Mode, ozone dose of less than or equal to 5 mg/l, FIG. 27"}, "[9]": {"assay": "Bench-scale ozone / AOP treatment of tertiary filtered effluent: Ibuprofen", "settings": "Ozone Only Mode"}, "[10]": {"assay": "Bench-scale ozone / AOP treatment of tertiary filtered effluent: Caffeine", "settings": "Ozone Only Mode, ozone dose of 5 mg/l, FIG. 31"}, "[11]": {"assay": "Bench-scale ozone / AOP treatment of tertiary filtered effluent: Trimethoprim", "settings": "Ozone Only Mode, ozone dose of 5 mg/l, FIG. 34"}, "[12]": {"assay": "Bench-scale ozone / AOP treatment of tertiary filtered effluent: Gemifibrozil", "settings": "Ozone Only Mode, ozone dose of less than or equal to 5 mg/l, FIG. 28"}, "[13]": {"assay": "Destruction of trace organic compounds in waste water: nonylphenol", "design": "dose or concentration left out as unconfirmed", "settings": "ozone dose of about, FIG. 20", "protocol": "as §1"}},
  "note": "Like-named read-outs stand apart in the source and are kept apart here.",
  "data": [
    {"molecule": "OO", "note": "[Hydrogen peroxide]", "values": [
      {"measurement": "effect of peroxide addition on virus / MS2 coliphage disinfection", "setting": "MS2 coliphage; listed as Peroxide", "result": "did not impact disinfection efficacy"},
      {"measurement": "effect of peroxide addition on virus / MS2 coliphage disinfection", "setting": "MS2 coliphage; listed as hydrogen peroxide", "result": "did not interfere"},
      {"measurement": "effect of peroxide addition on virus / MS2 coliphage disinfection", "setting": "MS2 coliphage; listed as peroxide", "result": "did not significantly affect disinfection"},
      {"measurement": "Removal (%) MIB", "setting": "[1]; feed rate 1 mg/L", "result": 72, "unit": "%"},
      {"measurement": "Removal (%) Geosmin", "setting": "[2]; feed rate 1 mg/L", "result": 50, "unit": "%"}
    ]},
    {"molecule": "O=[O+][O-]", "note": "[Ozone]", "values": [
      {"measurement": "reduction of the levels of BPA", "setting": "[3]", "result": "substantially reduce"},
      {"measurement": "maximum removal of Triclosan", "setting": "[4]", "result": "> 76", "unit": "%"},
      {"measurement": "Log Reduction of Poliovirus as a function of ozone dose (equation 1)", "setting": "poliovirus", "result": 0.3427, "unit": "×Ozone Dose−0.3621"},
      {"measurement": "disinfection of poliovirus corresponding to the 6.5-log disinfection of MS2 coliphage", "setting": "poliovirus", "result": 5, "unit": "log"},
      {"measurement": "maximum removal of Sulfamethoxazole", "setting": "[5]", "result": "> 99.9", "unit": "%"},
      {"measurement": "maximum removal of Fluoxetine", "setting": "[6]", "result": "> 97", "unit": "%"},
      {"measurement": "Log Reduction of MS2 as a function of ozone dose (equation 2)", "setting": "MS2 coliphage", "result": 0.4045, "unit": "×Ozone Dose+0.1823"},
      {"measurement": "contact time sufficient to achieve a 6.5-log disinfection of MS2 coliphage", "setting": "MS2 coliphage", "result": "about 10 seconds"},
      {"measurement": "disinfection of MS2 coliphage achieved", "setting": "MS2 coliphage", "result": 6.5, "unit": "log"},
      {"measurement": "ozone dose required to achieve a 6.5-log disinfection of MS2 coliphage", "setting": "MS2 coliphage", "result": "greater than 5 ppm"},
      {"measurement": "ozone required to achieve a 6.5-log disinfection of MS2 coliphage, relative to media-filtered water", "setting": "MS2 coliphage", "result": "slightly lower"},
      {"measurement": "Removal (%) MIB", "setting": "[1]; feed rate 2.5 mg/L", "result": 77, "unit": "%"},
      {"measurement": "reduction in MIB", "setting": "[1]; ozone 3 mg/L, FIG. 6", "result": "~40", "unit": "%"},
      {"measurement": "reduction of the levels of TCS", "setting": "[7]", "result": "substantially reduce"},
      {"measurement": "log reduction of E. Coli", "setting": "E. Coli", "result": "greater than 4 log"},
      {"measurement": "E. Coli after disinfection (below the detection limit)", "setting": "E. Coli; untreated 12,000 organism/100 ml, FIG. 37", "result": "< 1", "unit": "organism/100 ml"},
      {"measurement": "levels of coliforms after treatment", "setting": "total coliform", "result": "non-detectable"},
      {"measurement": "ozone dose at which non-detectable levels of total coliform were achieved", "setting": "total coliform", "result": 4.5, "unit": "mg/L"},
      {"measurement": "total coliform after treatment", "setting": "total coliform", "result": "less than 2.2 MPN/100 mL"},
      {"measurement": "maximum removal of Estradiol Equivalents", "setting": "[8]", "result": "> 97", "unit": "%"},
      {"measurement": "reduction in geosmin", "setting": "[2]", "result": "~40", "unit": "%"},
      {"measurement": "Removal (%) Geosmin", "setting": "[2]; feed rate 2.5 mg/L", "result": 94, "unit": "%"},
      {"measurement": "removal of Ibuprofen", "setting": "[9]; ozone dose of 5 mg/l, FIG. 29", "result": "~77", "unit": "%"},
      {"measurement": "maximum removal of Ibuprofen", "setting": "[9]; ozone dose of less than or equal to 10 mg/l", "result": "> 98", "unit": "%"},
      {"measurement": "maximum removal of Caffeine", "setting": "[10]", "result": "> 96", "unit": "%"},
      {"measurement": "maximum removal of Trimethoprim", "setting": "[11]", "result": "> 99", "unit": "%"},
      {"measurement": "maximum removal of Gemifibrozil", "setting": "[12]", "result": "> 99", "unit": "%"},
      {"measurement": "reduction of the levels of NP", "setting": "[13]", "result": "substantially reduce"}
    ]}
  ]
}
